Measured values reported in patent US20220304974A1, “COMPOSITION COMPRISING GOSSYPETIN FOR PREVENTION OR TREATMENT OF NEURODEGENERATIVE DISEASE” (NOVMETAHEALTH CO.,LTD., priority 2019, published 2022).

Key:
[1] = test system: 5×FAD Alzheimer's disease-induced mice; assay: Y-maze test in Alzheimer's disease-induced mice; assay type: in vivo, mouse; details: for cognitive function (Y-maze test): 5×FAD mice, oral 10 mg/kg for 15 weeks from 8 weeks of age, FIG. 12
Experimental: (§1) […] Thereafter, Y-maze and Morris water maze tests were performed, which are widely used to check cognitive function. Specifically, short-term memory was assessed through the Y-maze test. The Morris water maze test was performed one week after the Y-maze test. Each mouse was trained to remember the location of the platform for 5 days, and then the time for the mouse to reach the platform was measured. On day 6 after the platform memory training, the platform was removed from the water tank, and the frequency of mouse staying at the site where the platform had been located was measured.

[2] = test system: 5×FAD Alzheimer's disease-induced mice; assay: Morris water maze test in Alzheimer's disease-induced mice; assay type: in vivo, mouse; details: 5×FAD mice; for memory of the platform site (water maze test): oral 10 mg/kg for 16 weeks from 8 weeks of age, platform removed on Day 6, FIG. 13
Experimental: as §1
In the water maze test, the mice were trained to find a platform placed under the surface in a water tank for 5 days, and then on Day 6, the platform was removed, and it was monitored how well the mice remembered the site where the platform had been located.

[3] = test system: U2OS cells expressing VRK2; assay: Intracellular polyglutamine protein aggregation (dot blot, electrophoresis, microscopy), different concentrations of gossypetin; assay type: cell-based
Experimental: Polyglutamine protein aggregation is a cause of a degenerative brain disease. In order to investigate the polyglutamine protein aggregation inhibitory effect of gossypetin, U2OS cells expressing VRK2 were treated with different concentrations of gossypetin after the expression of a green fluorescent protein-conjugated polyglutamine protein, and a dot blot assay was performed. The protein aggregates formed in the cells were observed via electrophoresis, and the intracellular protein aggregate formation was observed using a microscope and quantitatively expressed.

VRK2 [4] = target: T1, VRK2 (Homo sapiens, UniProt Q86Y07); assay: Binding between VRK2 and gossypetin-Sepharose 4B
Source text: First, gossypetin was chemically bound to Sepharose 4B (FIG. 2A), and then the binding between gossypetin and VRK2 was investigated.

VRK2 [5] = target: T1, VRK2; assay: VRK2 activity inhibition (in vitro kinase assay, autophosphorylation); assay type: biochemical
Source text: The kinase VRK2 is known to prevent the elimination of polyglutamine aggregates by regulating TRiC chaperone protein in cells.
The cytotoxicity of each compound was also examined.

chaperone protein CCT-4 = assay: Chaperone protein preservation (amount of CCT-4); details: addition of gossypetin; FIG. 2E
Aβ amyloid aggregates = assay: Immunohistochemistry staining of Aβ amyloid aggregates in brain slices; assay type: in vivo, mouse; details: hippocampus and frontal lobe tissues; mice fed with gossypetin; FIGS. 6A to 6F
Experimental: The brains were extracted from the groups of Alzheimer's disease-induced mice fed and not fed with gossypetin and were made into slices, and then the formation of Aβ amyloid aggregates was analyzed using immunohistochemistry staining.

microglia and astrocytes = assay: Gliosis analysis with IBA-1 and GFAP antibodies in brain slices; assay type: in vivo, mouse; details: hippocampus and frontal lobe tissues; FIGS. 8 and 9
Experimental: The brains were extracted from the groups of Alzheimer's disease-induced mice fed and not fed with gossypetin and were made into slices, and then the distribution and proliferation of microglia and astrocytes were analyzed using an antibody against IBA-1, a specific protein of microglia, and an antibody against GFAP, a specific protein of astrocytes.

[6] = test system: polyglutamine protein aggregation in the cells; assay: Intracellular polyglutamine protein aggregation, comparison of compounds (fluorescence microscope); assay type: cell-based; details: compared with the drug-untreated control group; FIGS. 11A and 11B
Experimental: (§2) In addition, cells were treated with each compound together with the induction of polyglutamine protein aggregation, and the reduction in amount of protein aggregation in the cells was observed using a fluorescence microscope. The total area of protein aggregation occurring in the cells, average size of protein aggregation, and inhibition rate of protein aggregation compared with the drug-untreated control group are shown in the table. The cytotoxicity of each compound was also examined.

cells = assay: Cytotoxicity of each compound; assay type: cell-based; details: FIG. 11C
Experimental: as §2

T1 sequence (Q86Y07 whole entry, species assumed): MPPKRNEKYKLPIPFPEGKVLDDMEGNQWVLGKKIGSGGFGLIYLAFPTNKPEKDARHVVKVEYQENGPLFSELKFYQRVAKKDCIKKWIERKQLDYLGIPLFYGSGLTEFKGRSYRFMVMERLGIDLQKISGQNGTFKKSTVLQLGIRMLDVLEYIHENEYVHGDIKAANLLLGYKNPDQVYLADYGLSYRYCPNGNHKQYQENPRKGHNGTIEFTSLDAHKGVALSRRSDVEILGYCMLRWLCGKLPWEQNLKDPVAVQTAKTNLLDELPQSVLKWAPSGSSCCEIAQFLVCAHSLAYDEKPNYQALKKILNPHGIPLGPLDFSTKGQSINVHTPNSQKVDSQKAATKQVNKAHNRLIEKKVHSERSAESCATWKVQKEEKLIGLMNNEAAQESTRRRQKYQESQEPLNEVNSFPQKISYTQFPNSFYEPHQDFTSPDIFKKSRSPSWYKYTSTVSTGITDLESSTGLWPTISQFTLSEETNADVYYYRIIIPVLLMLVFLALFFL

## O=C(/C=C/c1ccc(O)c(O)c1)O[C@H](Cc1ccc(O)c(O)c1)C(=O)O [rosmarinic acid, reference compound]
[1]
  cognitive function (Y-maze test): did not contribute to the alleviation of such cognitive function decline
[2]
  memory of the platform site (water maze test): not significantly restored

## O=c1c(O)c(-c2ccc(O)c(O)c2)oc2c(O)c(O)cc(O)c12 [gossypetin, 2-(3,4-dihydroxyphenyl)-3,5,7,8-tetrahydroxy-4H-chromen-4-one]
[3]; FIGS. 1F to 1H
  number of protein aggregate-bearing cells: decreased
[3]; different concentrations of gossypetin, FIGS. 1A and 1B
  polyglutamine protein aggregates: reduced depending on the gossypetin concentration
VRK2 [4]; addition of gossypetin, FIG. 2C
  interaction between gossypetin and VRK2 (competition by added gossypetin): specific
VRK2 [4]; gossypetin-Sepharose 4B vs Sepharose 4B, FIG. 2B
  binding between gossypetin and VRK2: VRK2 and gossypetin bound to each other
VRK2 [5]; different concentrations of gossypetin, FIG. 2D
  VRK2 activity: inhibited depending on the concentration of gossypetin
VRK2 [5]; same concentration of 25 μM, FIG. 10
  autophosphorylation activity of VRK2: most strongly inhibited
Chaperone protein CCT-4
  amount of the chaperone protein CCT-4: not decreased but increased
[1]
  cognitive function (Y-maze test): restored the behavioral alteration to an almost normal level
[1]; 7-week-old 5×FAD mice, oral 10 mg/kg for 14 weeks, FIG. 3C
  short-term memory (Y-maze test): improvement in short-term memory to a level similar to that of normal mice
[2]; oral 10 mg/kg for 14 weeks, 5 days training, FIG. 4
  time to find the platform (escape latency): found the platform in a shorter amount of time which was almost as fast as normal mice
[2]; oral 10 mg/kg for 14 weeks, platform removed, day 6, FIG. 5
  frequency of staying at the site where the platform had been located: increased frequency of staying at the site where the platform had been located
[2]
  memory of the platform site (water maze test): excellent memory comparable to normal mice
Aβ amyloid aggregates
  Aβ amyloid aggregates: significantly reduced
Microglia and astrocytes
  hyperactivity of microglia and astrocytes (gliosis): significantly reduced
[6]
  inhibition of the intracellular protein aggregation: 43%
cells
  cytotoxicity: not showing toxicity in cells
